“And” between values parts separate entries of the source, which are not always exact repeats. Identical values can stand only once. Toxic doses and inconclusive results are not listed. Rule as the data show it: active = T/C of 150% or more; inactive = T/C below 125%.
System: L1210 leukemia ip in BDF1 mice, survival T/C
Experiment: NCI In Vivo Anticancer Drug Screen. Data for tumor model L1210 Leukemia (intraperitoneal) in B6D2F1 (BDF1) mice
Settings: endpoint: mean survival time, higher = longer survival
Outline: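 Mice bearing the transplanted tumor received compound or vehicle. Survival of the treated group was divided by that of the vehicle-treated control group to give the ratio.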

[1] = dose: 100.0 mg/kg/injection, schedule: Q04DX002 (ip), vehicle: Klucel (hydroxypropylcellulose) (HPC)
[2] = dose: 200.0 mg/kg/injection, schedule: Q04DX002 (ip), vehicle: Klucel (hydroxypropylcellulose) (HPC)
[3] = dose: 400.0 mg/kg/injection, schedule: Q04DX002 (ip), vehicle: Klucel (hydroxypropylcellulose) (HPC)
[4] = dose: 100.0 mg/kg/injection, schedule: Q01DX009 (ip), vehicle: Klucel (hydroxypropylcellulose) (HPC)
[5] = dose: 100.0 mg/kg/injection, schedule: Q04DX003 (ip), vehicle: Klucel (hydroxypropylcellulose) (HPC)
[6] = dose: 200.0 mg/kg/injection, schedule: Q01DX009 (ip), vehicle: Klucel (hydroxypropylcellulose) (HPC)
[7] = dose: 200.0 mg/kg/injection, schedule: Q04DX003 (ip), vehicle: Klucel (hydroxypropylcellulose) (HPC)
[8] = dose: 400.0 mg/kg/injection, schedule: Q01DX009 (ip), vehicle: Klucel (hydroxypropylcellulose) (HPC)

Measured: T/C

Cc1cccc2nc3nc(Cl)c(Cl)nc3n12
inactive: dose: 75.0 mg/kg/injection, schedule: Q01DX001 (ip), vehicle: acetone 98 % of control | dose: 150.0 mg/kg/injection, schedule: Q01DX001 (ip), vehicle: acetone 101 % of control | dose: 300.0 mg/kg/injection, schedule: Q01DX001 (ip), vehicle: acetone 92 % of control

Cc1cccc(CO)n1
inactive: dose: 100.0 mg/kg/injection, schedule: Q01DX009 (ip), vehicle: saline 106 % of control | dose: 100.0 mg/kg/injection, schedule: Q04DX003 (ip), vehicle: saline 110 % of control | dose: 200.0 mg/kg/injection, schedule: Q01DX009 (ip), vehicle: saline 108 % of control | dose: 200.0 mg/kg/injection, schedule: Q04DX003 (ip), vehicle: saline 110 % of control | dose: 400.0 mg/kg/injection, schedule: Q01DX009 (ip), vehicle: saline 103 % of control | dose: 400.0 mg/kg/injection, schedule: Q04DX003 (ip), vehicle: saline 103 % of control

O=C(/C=C\c1cccc([N+](=O)[O-])c1)c1ccc(F)cc1
inactive: [1] 100 % of control | [2] 94 % of control | [3] 98 % of control

COc1cc(Nc2ccc(O)c(CN3CCCCC3)c2)c2ncccc2c1
inactive: dose: 75.0 mg/kg/injection, schedule: Q01DX001 (ip), vehicle: other 98 % of control | dose: 150.0 mg/kg/injection, schedule: Q01DX001 (ip), vehicle: other 98 % of control | dose: 300.0 mg/kg/injection, schedule: Q01DX001 (ip), vehicle: other 91 % of control

Cc1oc2ccc(NS(=O)(=O)c3ccccc3)cc2c1C(=O)O
inactive: dose: 25.0 mg/kg/injection, schedule: Q01DX009 (ip), vehicle: saline with Tween-80 101 % of control | dose: 50.0 mg/kg/injection, schedule: Q01DX009 (ip), vehicle: saline with Tween-80 107 % of control | dose: 100.0 mg/kg/injection, schedule: Q01DX009 (ip), vehicle: saline with Tween-80 101 % of control

c1ccc(C2C(c3ccccc3)N2CCCN2CCOCC2)cc1 (configuration not stated)
inactive: dose: 50.0 mg/kg/injection, schedule: Q01DX009 (ip), vehicle: Klucel (hydroxypropylcellulose) (HPC) 106 % of control | [4] 103 % of control | [5] 88 % of control | [6] 107 % of control | [7] 93 % of control

Cc1ccc(S(=O)(=O)N(C)c2ccc3cc(C(=O)O)ccc3c2)cc1
inactive: [4] 94 % of control | [5] 102 % of control | [6] 95 % of control | [7] 106 % of control | [8] 94 % of control | dose: 400.0 mg/kg/injection, schedule: Q04DX003 (ip), vehicle: Klucel (hydroxypropylcellulose) (HPC) 90 % of control

O=C(Nc1ccccc1Cl)N1CCOCC1
inactive: [1] 106 % of control | [2] 103 % of control | [3] 87 % of control

CCCCc1c(C)c2c(O)cc(C)cc2oc1=O
inactive: dose: 100.0 mg/kg/injection, schedule: Q01DX001 (ip), vehicle: acetone 92 % of control | dose: 200.0 mg/kg/injection, schedule: Q01DX001 (ip), vehicle: acetone 95 % of control | dose: 400.0 mg/kg/injection, schedule: Q01DX001 (ip), vehicle: acetone 92 % of control

CN(C)c1ccc(/C=N/NC(=O)c2ccc(N)cc2)cc1
inactive: [4] 89 % of control | [6] 86 % of control | [8] 89 % of control

CC(C)(C)c1cc(C=C2C(=O)c3ccccc3C2=O)cc(C(C)(C)C)c1O
inactive: dose: 100.0 mg/kg/injection, schedule: Q04DX002 (ip), vehicle: saline with Tween-80 87 % of control | dose: 200.0 mg/kg/injection, schedule: Q04DX002 (ip), vehicle: saline with Tween-80 90 % of control | dose: 400.0 mg/kg/injection, schedule: Q04DX002 (ip), vehicle: saline with Tween-80 93 % of control

CC(=O)O[C@H]1CC[C@@]2(C)[C@@H](CC[C@@H]3[C@@H]2CC[C@]2(C)[C@@H](C(C)=O)CC[C@@H]32)C1
inactive: [1] 96 % of control | [2] 96 % of control | [3] 96 % of control

OCCN1CCN(CC/C=C2\c3ccccc3Sc3ccc(Cl)cc32)CC1
inactive: dose: 0.39 mg/kg/injection, schedule: Q03HX024 (ip), vehicle: saline 100 % of control | dose: 0.78 mg/kg/injection, schedule: Q03HX024 (ip), vehicle: saline 94 % of control | dose: 1.0 mg/kg/injection, schedule: Q01DX009 (ip), vehicle: saline 101 % of control and 87 % of control | dose: 1.56 mg/kg/injection, schedule: Q03HX024 (ip), vehicle: saline 107 % of control | dose: 2.0 mg/kg/injection, schedule: Q01DX009 (ip), vehicle: saline 95 % of control and 103 % of control | dose: 3.12 mg/kg/injection, schedule: Q01DX009 (ip), vehicle: saline 104 % of control | dose: 3.12 mg/kg/injection, schedule: Q03HX024 (ip), vehicle: saline 111 % of control | dose: 3.12 mg/kg/injection, schedule: Q04DX003 (ip), vehicle: saline 106 % of control | dose: 4.0 mg/kg/injection, schedule: Q01DX009 (ip), vehicle: saline 100 % of control and 106 % of control | dose: 6.25 mg/kg/injection, schedule: Q01DX009 (ip), vehicle: saline 120 % of control | dose: 6.25 mg/kg/injection, schedule: Q04DX003 (ip), vehicle: saline 100 % of control and 105 % of control | dose: 8.0 mg/kg/injection, schedule: Q01DX009 (ip), vehicle: saline 106 % of control and 115 % of control | dose: 9.37 mg/kg/injection, schedule: Q01DX001 (ip), vehicle: saline 106 % of control | dose: 12.5 mg/kg/injection, schedule: Q01DX009 (ip), vehicle: saline 120 % of control and 86 % of control | dose: 12.5 mg/kg/injection, schedule: Q04DX003 (ip), vehicle: saline 108 % of control and 116 % of control | dose: 16.0 mg/kg/injection, schedule: Q01DX009 (ip), vehicle: saline 115 % of control and 89 % of control | dose: 18.75 mg/kg/injection, schedule: Q01DX001 (ip), vehicle: saline 100 % of control | dose: 20.0 mg/kg/injection, schedule: Q04DX003 (ip), vehicle: saline 115 % of control | dose: 25.0 mg/kg/injection, schedule: Q01DX009 (ip), vehicle: saline 124 % of control | dose: 25.0 mg/kg/injection, schedule: Q04DX003 (ip), vehicle: saline 119 % of control | dose: 37.5 mg/kg/injection, schedule: Q01DX001 (ip), vehicle: saline 105 % of control | dose: 40.0 mg/kg/injection, schedule: Q04DX003 (ip), vehicle: saline 105 % of control | dose: 75.0 mg/kg/injection, schedule: Q01DX001 (ip), vehicle: saline 105 % of control

COc1ccc2c(c1)CCC1C2CCC2(C)C1CCC2(C)N(C)C (configuration not stated)
inactive: dose: 50.0 mg/kg/injection, schedule: Q01DX001 (sc), vehicle: steriod suspending solution 104 % of control

CCNC(=S)NCCO
inactive: dose: 100.0 mg/kg/injection, schedule: Q04DX003 (ip), vehicle: saline sonified 97 % of control | dose: 200.0 mg/kg/injection, schedule: Q04DX003 (ip), vehicle: saline sonified 90 % of control | dose: 400.0 mg/kg/injection, schedule: Q04DX003 (ip), vehicle: saline sonified 97 % of control

CN(C)C(=O)NCc1cccnc1
inactive: dose: 100.0 mg/kg/injection, schedule: Q04DX013 (ip), vehicle: saline 100 % of control | dose: 200.0 mg/kg/injection, schedule: Q04DX013 (ip), vehicle: saline 94 % of control | dose: 400.0 mg/kg/injection, schedule: Q04DX013 (ip), vehicle: saline 101 % of control

COc1ccccc1NC(=O)OCc1ccco1
inactive: dose: 100.0 mg/kg/injection, schedule: Q01DX009 (ip), vehicle: other 106 % of control | dose: 200.0 mg/kg/injection, schedule: Q01DX009 (ip), vehicle: other 101 % of control | dose: 400.0 mg/kg/injection, schedule: Q01DX009 (ip), vehicle: other 104 % of control
